# Columns and labels:
# PC9 cell line = experiment: Switch 2 sensitivity of cancer cell lines (PC9); format: cell-based
# Description: (§1) Personalize switch 2 designs for different NSCLC tumors. Quantitative models (FIG. 5) have identified the extent of switch 2 bystander driven killing as a key factor in gene drive success. This effect is larger in from spatial systems (2D/3D) (FIG. 10). Pharmacologically, the toxin responsible for the bystander effect must be diffusible and have a half-life on the order of hours to be evolutionarily useful. Prototypes used here meet these transport constraints, but some cancer cell types display differential biological sensitivity to distinct switch 2 metabolites. […] Cell and organoid type specificity in Switch 2 designs is assessed in a larger number of genetically defined NSCLC cell line (FIGS. 8 and 10).
# [1] = tested on: EGFR+ BaF3 tumors expressing S2 vCyD; experiment: In vivo cytosine deaminase activity; set-up: species or system mice; conditions: daily dosing of 5-FC
# Description: In vivo cytosine deaminase activity. Mice were randomized into three arms (five mice/arm).
# Tumors were allowed to grow for 12 days, and then once-daily treatment was initiated. The wild-type arm and one of the S2 vCyD arms received 800 uL 500 mg/kg 5-FC via ip injection. The second S2 vCyD arm received 800 uL vehicle control (sterile PBS). Tumor volumes were measured every other day.
# [2] = tested on: EGFR L858R transformed cell population; experiment: Prototype dual-switch selection drive in vitro (FIG. 3); format: cell-based
# Description: The dual-switch drive engineers the evolutionary dynamics of an EGFR L858R transformed cell population in vitro. […] Rimiducid is removed to inactivate switch 1 driven drug resistance in the gene drive cell.
# [3] = tested on: mixed wild-type and S2 vCyD BaF3 cells; experiment: Enzyme-prodrug bystander assay (vCyD, BaF3); format: cell-based, murine; conditions: 1 mM 5-FC
# Description: Enzyme-prodrug bystander assays (vCyD and vNfsA). To evaluate the S2 vCyD system, populations of wild-type and cytosine deaminase-expressing BaF3 cells were mixed at defined ratios and seeded at 30k/well in 96-well plates in triplicate, and 1 mM 5-FC was added. Cell viability was measured after 48 hours using CellTiter-Glo and normalized to untreated controls. Similarly, wild-type and S1vEGFRosi-S2vCyD PC9 cells were mixed, seeded at 20k/well, and treated with 1 mM 5-FC.
# [4] = tested on: RET fusion driven cancer cell line; experiment: Switch 2 sensitivity of cancer cell lines (RET line); format: cell-based
# Description: as §1
# [5] = tested on: phospho-EGFR and phospho-ERK; experiment: Immunoblotting of EGFR/MAPK signaling in PC9 cells; format: cell-based, human; conditions: erlotinib-treated S1 vEGFRerl PC9 cells, dimerizer added
# S1 vEGFRerl BaF3 cells = experiment: BaF3 dimerizer-dependence assay (growth rate); format: cell-based, murine; conditions: absence of IL-3; range of dimerizer concentrations
# Description: BaF3 dimerizer-dependence assays. S1 vEGFRerl BaF3s were seeded in 12-well plates at 100k/well with dimerizer (AP20187, Takara) in triplicate. Cell counts were measured on a hemocytometer every day for four days, and an exponential curve was fit to the data to estimate growth rates.
# S1 vEGFRerl BaF3 tumors = experiment: Engineered Switch 1 BaF3 in vivo model (dimerizer-dependence); set-up: species or system mice; conditions: once-daily dimerizer, range of doses, 12 days
# Description: Engineered Switch 1 BaF3 in vivo models. All animal experiments were conducted under a protocol approved by the Institutional Animal Care and Use Committee. In the dimerizer-dependence in vivo experiment, S1 vEGFRerl BaF3 cells were subcutaneously grafted on both flanks (3.5M/flank) of NOD-SCID mice (Jackson Labs). Mice were randomized into four arms (0, 0.1, 1, and 10 mg/kg dimerizer) of 3 mice each. Mice received 100 uL dimerizer or vehicle control (2% Tween in PBS) once daily via intraperitoneal injection. Tumor volumes were measured with calipers following 12 days of treatment.
# [6] = tested on: mixed-population PC9 tumors; experiment: Gene drive in PC9 tumors in vivo
# Description: To test this, mixtures of 50% gene drive and 50% resistant PC9 cells were generated to reflect a possible population structure at the beginning of Switch 2. These pooled populations were grafted in mice. The mice were then treated with Switch 2 drugs (osimertinib and 5-FC) with or without concurrent Switch 1 engagement (dimerizer).
# Finally, these findings were performed in a full-term gene drive experiment in vivo.
# [7] = tested on: S1 vEGFRerl EGFR+ NSCLC PC9 cells; experiment: Erlotinib dose response in Switch 1 PC9 cells; format: cell-based, human; conditions: erlotinib with or without dimerizer
# Description: Drug dose response assays. In general, all 1C50 measurements were conducted similarly. Cells were seeded in 96-well plates at 3k/well triplicate. Adherent cells were given 24 hours before the addition of drug. Cell viability was measured three days after drug treatment using CellTiter-Glo 2.0 (Promega) and luminescence values were normalized to vehicle control conditions.
# [8] = tested on: mixed-population EGFR+ BaF3 tumors; experiment: Gene drive in BaF3 tumors in vivo; set-up: species or system mice; conditions: tumors lacking gene drive cells, daily erlotinib
# [9] = tested on: Early passage wild-type PC9 cells; experiment: Early passage wild-type PC9 culture in EGFR inhibitors; format: cell-based; conditions: even at high concentrations
# [10] = tested on: pooled sensitive, resistant and immune gene drive PC9 cells; experiment: Immune gene drive growth tracking in PC9 mixed populations; format: cell-based, human; conditions: lacking gene drive cells
# [11] = tested on: PC9 cells transduced with EGFR variant library; format: cell-based, human
# CRISPRko PC9 population = format: cell-based, human
# [12] = tested on: RET+ thyroid carcinoma TPC1 cells; experiment: RET gene drive growth tracking in TPC1 mixed populations; format: cell-based, human; conditions: absence of gene drive cells, pralsetinib
# Description: Gene drive growth tracking. Populations of sensitive, mCherry+ resistant, and GFP+ gene drive cells were mixed together. Except where otherwise noted, mixed populations consisted of 0.5% resistant cells and 5% gene drive cells. Cells were seeded in 24-well plates (1.5M/well for BaF3s and 50k/well for adherent cells) in triplicate, with the exception of the gene-drive titer experiment where 3M/well BaF3s were seeded in 6-well plates in order to maintain sufficient cell numbers for low spike-in conditions. […] For Switch 2 conditions, 500 μM 5-FC replaced dimerizer in the above formulations.
# Cell counts were measured every other day. For counts of adherent cells, wells were washed with PBS, trypsinized, and then resuspended in RPMI. Cell suspensions were transferred to microcentrifuge tubes, vortexed, and a small aliquot (6%) was analyzed by flow cytometry (BD Accuri) to get subpopulation cell counts. The remaining cells were spun down (1k g for 5 min), the supernatant was aspirated, and the cell pellet was resuspended in fresh RPMI and seeded onto a new plate. Fresh drug was added immediately. In general, Switch 2 treatment began when the gene drive population exceeded 60% of the day 0 cell counts. Cells were monitored for 2-3 weeks after apparent eradication to ensure that no remaining cells grew back.
# [13] = in vivo; cited from earlier work
# [14] = tested on: CD19+ and CD19- PC9 cells; experiment: Immune bystander assay (vCD19); format: cell-based, human; conditions: co-culture with primary T cells and blinatumomab
# Description: Immune bystander assays (vCD19). PBMCs were sourced from Astarte and T cells were expanded using CD3/CD28 dynabeads (1:100 bead: cell ratio). For the immune bystander experiments, CD19+ and CD19-PC9 cells were seeded 1:1 in 24 wells plates at 60k/well. After 24 hours, 1 ng/mL blinatumomab was added to all wells. At the same time, freshly-thawed T cells were added at the appropriate concentration. Each target: effector ratio was conducted in triplicate. After 48 hours, the supernatant and resuspended adherent cells were pooled and analyzed according to the following staining protocol. Cells were spun down (750 g for 3 min) and resuspended in 50 uL Fc block buffer. After a 10 minute incubation, 100 uL antibody mixture (anti-CD3/FITC and anti-CD19/APC) was added. The cell suspension was incubated at 4C for 20 minutes. After three washes in PBS with 1% BSA, the cell suspension was analyzed by flow cytometry.
molecule,measurement,setting,value
Nc1nc(=O)[nH]cc1F [5-FC],sensitivity to cytosine deaminase>5-FC pair,PC9 cell line,more modestly sensitive
same,tumor response,[1],rapid tumor regression
same,effect on resistant population when switch 2 is induced,"[2]; 5-FC added, rimiducid removed, erlotinib maintained",kills the resistant population
same,killing in mixed cultures (bystander effect),[3],significantly higher killing than expected
same,sensitivity to cytosine deaminase->5-FC pair,[4],highly sensitive
CC[C@H](C(=O)N1CCCC[C@H]1C(=O)O[C@H](CCc1ccc(OC)c(OC)c1)c1cccc(OCC(=O)NCC(CNC(=O)COc2cccc([C@@H](CCc3ccc(OC)c(OC)c3)OC(=O)[C@@H]3CCCCN3C(=O)[C@@H](CC)c3cc(OC)c(OC)c(OC)c3)c2)CN(C)C)c1)c1cc(OC)c(OC)c(OC)c1 [dimerizer],MAPK signaling (western blot),[5],rescues MAPK signaling
same,growth of S1 vEGFRerl BaF3 cells,S1 vEGFRerl BaF3 cells,Stimulated growth
same,tumor growth,S1 vEGFRerl BaF3 tumors,stimulated tumor growth
same,time to progression,"[6]; 50% gene drive/50% resistant, osimertinib and 5-FC with temporary dimerizer vs without",exhibited a longer time to progression
same,inducible drug resistance phenotype,[7],causes inducible drug resistance
C#Cc1cccc(Nc2ncnc3cc(OCCOC)c(OCCOC)cc23)c1 [erlotinib],tumor dynamics,[8],initially regressed and then relapsed
same,population response,[9],initial regression followed by rapid outgrowth
same,effect on sensitive EGFR-L858R+ transformed cells,[2],killed
C=CC(=O)Nc1cc(Nc2nccc(-c3cn(C)c4ccccc34)n2)c(OC)cc1N(C)CCN(C)C [osimertinib],outcome of mixed population,[10],Resistance emerged
same,time of treatment to osimertinib resistance,[11],2-3 weeks
same,population dynamics,CRISPRko PC9 population,"initial decrease in population size, followed by the outgrowth of resistance"
same,tumor response,"[6]; mouse, in vivo",eventually became refractory to osimertinib treatment
same,population response,[9],initial regression followed by rapid outgrowth
CO[C@]1(C(=O)N[C@@H](C)c2ccc(-n3cc(F)cn3)nc2)CC[C@H](c2nc(C)cc(Nc3cc(C)[nH]n3)n2)CC1 [pralsetinib],outcome of mixed population,[12],selected for pre-existing G810R resistance
CC[C@H](C(=O)N1CCCC[C@H]1C(=O)O[C@H](CCc1ccc(OC)c(OC)c1)c1cccc(OCC(=O)NCCNC(=O)COc2cccc([C@@H](CCc3ccc(OC)c(OC)c3)OC(=O)[C@@H]3CCCCN3C(=O)[C@@H](CC)c3cc(OC)c(OC)c(OC)c3)c2)c1)c1cc(OC)c(OC)c(OC)c1 [rimiducid],clinical exposure,[13],0.1 to 1000 nM
same,effect of rimiducid-induced gene drive population on pre-existing resistance,"[2]; switch 1, erlotinib maintained",inhibits the growth of pre-existing resistance
blinatumomab: bispecific CD3/CD19 T cell engager,effect on S2 vCD19 (antigen-positive) cells,[14],targeted by the T cells
same,"effect on wild-type, antigen-negative cells (immune bystander activity)",[14],affected as well

# From patent US20250228971A1, “DESIGN AND CONSTRUCTION OF EVOLUTIONARY-GUIDED "SELECTION GENE DRIVE" THERAPY” (THE PENN STATE RESEARCH FOUNDATION, priority 2022, published 2025)
